From article PMC9195046, “Filament organization of the bacterial actin MreB is dependent on the nucleotide state” (The Journal of Cell Biology, 2022)

What was measured:
ScMreB5 [1] = target: T1, ScMreB5 (Spiroplasma citri, UniProt Q8VQG1); assay: X-ray crystal structure, […] Å; details: nucleotide-binding pocket; Mg2+ and K+ bound; 2 mM ADP, 2 mM MgCl2; ADP also co-purifies (HPLC)
T1 construct: gene mreB5; monomer about 38 kD, forms filaments
T1 sequence (Q8VQG1 1-352): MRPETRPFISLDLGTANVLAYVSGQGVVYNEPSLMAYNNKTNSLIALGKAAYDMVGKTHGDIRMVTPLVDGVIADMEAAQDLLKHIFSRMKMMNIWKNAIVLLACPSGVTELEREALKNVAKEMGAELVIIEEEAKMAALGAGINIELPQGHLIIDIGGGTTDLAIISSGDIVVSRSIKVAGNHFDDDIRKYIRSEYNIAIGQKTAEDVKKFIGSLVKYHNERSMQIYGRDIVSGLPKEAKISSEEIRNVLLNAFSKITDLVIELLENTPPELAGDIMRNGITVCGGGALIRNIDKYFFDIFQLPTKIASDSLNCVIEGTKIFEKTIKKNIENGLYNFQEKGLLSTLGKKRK

ScMreB5 [2] = target: T1, ScMreB5; assay: thermal shift (SYPRO Orange); type: binding; details: 2.6 µM protein, protein purified with ADP and MgCl2 added

| Structure (SMILES) | X-ray crystal structure, 2.3 Å (ScMreB5 [1]) | Tm (ScMreB5 [2]; 1 mM ADP) | Tm (ScMreB5 [2]; 1 mM ATP) |
| --- | --- | --- | --- |
| Nc1ncnc2c1ncn2[C@@H]1O[C@H](COP(=O)(O)OP(=O)(O)O)[C@@H](O)[C@H]1O [ADP] | ScMreB5 also crystallized in the presence of ADP (PDB accession no. 7BVZ) | Thermal shift assays showed increased stability in the KCl buffer and upon addition of excess ADP | – |
| Nc1ncnc2c1ncn2[C@@H]1O[C@H](COP(=O)(O)OP(=O)(O)OP(=O)(O)O)[C@@H](O)[C@H]1O [ATP] | – | – | increased stability in the KCl buffer and upon addition of excess ADP or ATP |
